In patent US8642011B2 (priority 2006, dated 2014):
Values after ≈ are worked out from the molar mass of the structure shown.

Tests used:
Assay in all cases: microbe, parasite or virus in culture
Details in all cases: Mycobacterium tuberculosis, read-out: minimum inhibitory concentration (MIC)
MT103 (wild type) = format: cell-based, M. tuberculosis
SO2 strain = format: cell-based, M. tuberculosis
[1] = test system: M. tuberculosis strains H37Rv; format: cell-based

Row | Compound | MIC (MT103 (wild type)) | MIC (SO2 strain) | MIC [1]
1 | CC[C@@H](CO)NCCN[C@@H](CC)CO [Ethambutol] | 2 µg/mL (≈ 9.79 µM) | 2 µg/mL (≈ 9.79 µM) | 2 µg/mL (≈ 9.79 µM)
2 | NNC(=O)c1ccncc1 [Isoniazid] | 0.5 µg/mL (≈ 3.65 µM) | 0.25 µg/mL (≈ 1.82 µM) | 0.5 µg/mL (≈ 3.65 µM)
3 | CO[C@H]1/C=C/O[C@@]2(C)Oc3c(C)c(O)c4c(O)c(c(/C=N/N5CCN(C)CC5)c(O)c4c3C2=O)NC(=O)/C(C)=C\C=C\[C@H](C)[C@H](O)[C@@H](C)[C@@H](O)[C@@H](C)[C@H](OC(C)=O)[C@@H]1C [Rifampicin] | < 0.004 µg/mL | < 0.004 µg/mL | < 0.004 µg/mL
4 | [H]/N=C(/N)N[C@H]1[C@H](O)[C@@H](O)[C@H](O[C@@H]2O[C@@H](C)[C@](O)(C=O)[C@H]2O[C@@H]2O[C@@H](CO)[C@H](O)[C@@H](O)[C@@H]2NC)[C@@H](N/C(N)=N\[H])[C@@H]1O [Streptomycin] | < 0.5 µg/mL | < 0.5 µg/mL | < 0.5 µg/mL
